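The compound was tested at five concentrations on cells cultured in 96-well plates, with a 48-hour exposure period. GI50 marks 50% less growth.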 Activity calls are given as the source filed them. Rule as the data show it: active = GI50 up to about 1.1 µM and inactive = higher. Peptide text beside a SMILES is read from it. * marks the point of attachment. Boc = CC(C)(C)OC(=O)*; OtBu = CC(C)(C)O* Bounds are passed on as bounds.

As a reminder, the GI50 is the concentration that inhibits growth by half.

Test systems include ACHN; CAKI-1; CCRF-CEM; HCT-116; HT-29; Hs-578T; K562; KM12; MCF7; MOLT-4; NCI-H226; NCI-H23; NCI-H522; OVCAR-5; SF-539; SK-MEL-5; SNB-19; T47D.
Common to all, as to assay: DTP human tumour cell line panel, 48 h

For `Cc1occc1C(=S)Nc1ccc(Cl)c(/C=N/OC(C)(C)C)c1`, the GI50 is 14.6 µM (inactive) in the experiment with ACHN; 17.2 µM (inactive) in the experiment on CAKI-1; 17.8 µM (inactive) in the experiment on CCRF-CEM; 13.5 µM (inactive) in the experiment with HCT-116; 13.7 µM (inactive) in the experiment on HT-29; 19.8 µM (inactive) with Hs-578T. Besides, the GI50 is 31.6 µM (inactive) in the experiment with K562; 15.3 µM (inactive) in the experiment with KM12; 18.1 µM (inactive) in the experiment with MCF7; 9.51 µM (inactive) in the experiment with MOLT-4; 16.9 µM (inactive) with NCI-H226; 15.3 µM (inactive) with NCI-H23. Also, the GI50 in the experiment on NCI-H522 was 11.7 µM (inactive); in the experiment with OVCAR-5, 15 µM (inactive); in the experiment with SF-539, 31.2 µM (inactive); in the experiment with SK-MEL-5, 17.3 µM (inactive); with SNB-19, 18.7 µM (inactive); in the experiment with T47D it was 16.5 µM (inactive).
For `O=C(O)c1cc(-c2ccc3c(O)ccc(O)c3c2)ccc1O`, the GI50 in the experiment with ACHN is 19.3 µM (inactive); with CAKI-1 it was 16.6 µM (inactive); in the experiment on CCRF-CEM, 1.87 µM (inactive); with HCT-116, 16.8 µM (inactive); in the experiment with HT-29, 18.8 µM (inactive); with Hs-578T, 18.7 µM (inactive). For the same compound, the GI50 was 5.14 µM (inactive) in the experiment on K562; 20.3 µM (inactive) in the experiment with KM12; 22.6 µM (inactive) in the experiment on MCF7; 3.01 µM (inactive) with MOLT-4; 19.7 µM (inactive) with NCI-H226; 25.8 µM (inactive) with NCI-H23. In addition, the GI50 in the experiment with NCI-H522 was 15.3 µM (inactive); with OVCAR-5, 18.3 µM (inactive); in the experiment with SF-539, 16 µM (inactive); in the experiment with SK-MEL-5 it was 14.7 µM (inactive); in the experiment with SNB-19, 40.9 µM (inactive); with T47D, 6.4 µM (inactive).
With `COc1cc(C=O)cc(/C=N/n2c3ccccc3c3ccccc32)c1O`, the GI50 with ACHN was 6.12 µM (inactive); with CAKI-1 it was 31.8 µM (inactive); with CCRF-CEM, 4.09 µM (inactive); with HCT-116, 10.9 µM (inactive); with HT-29 it was 35.7 µM (inactive); in the experiment with Hs-578T, 6.81 µM (inactive). In addition, the GI50 was 12 µM (inactive) in the experiment on K562; 35.8 µM (inactive) with KM12; 3.78 µM (inactive) with MCF7; 16.9 µM (inactive) in the experiment with MOLT-4; 6.3 µM (inactive) with NCI-H226; 39.6 µM (inactive) with NCI-H23. Further, the GI50 in the experiment with NCI-H522 is 33.6 µM (inactive); with OVCAR-5 it was 45.1 µM (inactive); with SF-539 it was 4.32 µM (inactive); in the experiment with SNB-19 it was 21.3 µM (inactive); with T47D it was > 100 µM (inactive).
On to `Cn1cc(NC(=O)c2cc(NC(=O)CNC(=N)N)cn2C)cc1C(=O)NCCC(=N)N` [NETROPSIN CHLORIDE], for which the GI50 with ACHN, in the experiment with CAKI-1, in the experiment with CCRF-CEM, in the experiment with HCT-116, in the experiment on HT-29 and in the experiment with Hs-578T was > 100 µM (inactive) in each case. Further, the GI50 with K562, in the experiment with KM12, with MCF7, in the experiment on MOLT-4, in the experiment with NCI-H226 and in the experiment on NCI-H23 was > 100 µM (inactive) throughout. Moreover, the GI50 in the experiment on NCI-H522, in the experiment with OVCAR-5, with SF-539, in the experiment with SK-MEL-5, with SNB-19 and with T47D was > 100 µM (inactive) each time.
Regarding `O=P1(Oc2ccccc2)N(CCCl)CCN1c1ccccc1` (stereo unspecified), the GI50 with ACHN is > 100 µM (inactive); in the experiment on CAKI-1, > 100 µM (inactive); with CCRF-CEM it was > 100 µM (inactive); in the experiment with HCT-116, 75.3 µM (inactive); in the experiment with HT-29 it was > 100 µM (inactive); in the experiment with Hs-578T, > 100 µM (inactive). Besides, the GI50 in the experiment on K562 is > 100 µM (inactive); with KM12, > 100 µM (inactive); with MCF7, 70.1 µM (inactive); in the experiment with MOLT-4, 61.8 µM (inactive); in the experiment with NCI-H226 it was > 100 µM (inactive); in the experiment with NCI-H23, > 100 µM (inactive). The GI50 with NCI-H522 is > 100 µM (inactive); in the experiment with OVCAR-5, > 100 µM (inactive); in the experiment on SF-539 it was > 100 µM (inactive); with SK-MEL-5, 66.5 µM (inactive); in the experiment on SNB-19, > 100 µM (inactive); in the experiment on T47D it was > 100 µM (inactive).
Turning to `CCOc1ccc(N/C(Cl)=C(Cl)\C(=C(\Nc2ccc(OCC)cc2)n2nnc3ccccc32)[N+](=O)[O-])cc1`, the GI50 is 4.03 µM (inactive) in the experiment on ACHN; 1.14 µM (inactive) in the experiment with CAKI-1; 1.3 µM (inactive) in the experiment with CCRF-CEM; 2.15 µM (inactive) in the experiment on HCT-116; 1.75 µM (inactive) with HT-29; 2.58 µM (inactive) with Hs-578T. Also, the GI50 was 2.36 µM (inactive) in the experiment on K562; 19.1 µM (inactive) with KM12; 5.89 µM (inactive) in the experiment on MCF7; 2.85 µM (inactive) in the experiment with MOLT-4; 19.4 µM (inactive) in the experiment with NCI-H226; 6.38 µM (inactive) with NCI-H23. Besides, the GI50 with NCI-H522 is 1.08 µM (active); in the experiment with OVCAR-5 it was 9.44 µM (inactive); in the experiment on SF-539 it was 4.2 µM (inactive); with SK-MEL-5 it was 8.49 µM (inactive); in the experiment with SNB-19, 17.4 µM (inactive); in the experiment with T47D, 4.47 µM (inactive).
Turning to `CCc1ccc(CCC(=O)O)nc1`, the GI50 in the experiment on ACHN, with CAKI-1, with CCRF-CEM, in the experiment with HCT-116, with HT-29 and with Hs-578T was > 100 µM (inactive) throughout. In addition, the GI50 in the experiment with K562, in the experiment on KM12, in the experiment on MCF7, with NCI-H226, in the experiment on NCI-H23 and in the experiment with NCI-H522 was > 100 µM (inactive) each time. Further, the GI50 in the experiment with OVCAR-5, in the experiment on SF-539, with SK-MEL-5, with SNB-19 and in the experiment with T47D was > 100 µM (inactive) each time.
As for `[N-]=[N+]=NC1OC(=O)C(Cl)=C1N=P(c1ccccc1)(c1ccccc1)c1ccccc1` (stereo unspecified), the GI50 was 8.63 µM (inactive) in the experiment with ACHN; > 10 µM (inactive) with CAKI-1; 4.3 µM (inactive) in the experiment with CCRF-CEM; 6.37 µM (inactive) with HCT-116; > 10 µM (inactive) in the experiment with Hs-578T; 3.59 µM (inactive) with K562. The GI50 in the experiment on KM12 was 7.85 µM (inactive); in the experiment with MCF7 it was 7.13 µM (inactive); in the experiment with MOLT-4 it was 3.01 µM (inactive); in the experiment with NCI-H226, > 10 µM (inactive); with NCI-H522, 6.67 µM (inactive); with OVCAR-5, > 10 µM (inactive). For the same compound, the GI50 in the experiment with SF-539, with SK-MEL-5, in the experiment on SNB-19 and with T47D was > 10 µM (inactive) in each case.
As for `CC(C)(C)OC(=O)CC(NC(=O)OC(C)(C)C)C(=O)NC(Cc1ccccc1)C(N)=O` (stereo unspecified) (Boc-Asp(OtBu)-Phe-NH2; configuration not given here), the GI50 with ACHN, in the experiment on CAKI-1, in the experiment on CCRF-CEM, in the experiment on HCT-116, with HT-29 and in the experiment with Hs-578T was > 100 µM (inactive) throughout. The GI50 in the experiment on K562, with KM12, with MCF7, in the experiment on NCI-H226, in the experiment with NCI-H23 and in the experiment with NCI-H522 was > 100 µM (inactive) each time. Also, the GI50 with OVCAR-5, in the experiment with SF-539, in the experiment with SK-MEL-5, with SNB-19 and with T47D was > 100 µM (inactive) throughout.
Regarding `CCOC(=O)/C(C(=O)Nc1cccc(Cl)c1)=C(/N)N1CCOCC1`, the GI50 with ACHN, with CAKI-1, in the experiment with CCRF-CEM, in the experiment with HCT-116, with HT-29 and in the experiment on Hs-578T was > 100 µM (inactive) each time. Besides, the GI50 in the experiment with K562, with KM12, in the experiment on MCF7, in the experiment with MOLT-4, in the experiment on NCI-H226 and in the experiment on NCI-H23 was > 100 µM (inactive) each time. Further, the GI50 with NCI-H522, in the experiment with OVCAR-5, with SF-539, in the experiment on SNB-19 and in the experiment with T47D was > 100 µM (inactive) throughout.
As for `O=C1CN(/N=C/c2ccc(-c3ccc(F)cc3)o2)C(=O)N1`, the GI50 in the experiment with ACHN is > 100 µM (inactive); in the experiment with CAKI-1 it was 58.6 µM (inactive); in the experiment on CCRF-CEM, > 100 µM (inactive); in the experiment on HCT-116, 50.8 µM (inactive); in the experiment on Hs-578T, 45.5 µM (inactive); with K562, 35 µM (inactive). Moreover, the GI50 in the experiment with KM12 is 33.1 µM (inactive); with MCF7 it was 49.1 µM (inactive); in the experiment on MOLT-4, 91.4 µM (inactive); with NCI-H226 it was 32.2 µM (inactive); in the experiment with NCI-H23, 82.6 µM (inactive); with NCI-H522, 21.1 µM (inactive). Further, the GI50 was > 100 µM (inactive) with OVCAR-5; 34.4 µM (inactive) in the experiment with SF-539; 26.4 µM (inactive) with SK-MEL-5; 83.9 µM (inactive) in the experiment on SNB-19; > 100 µM (inactive) with T47D.

The values above are taken from ChEMBL document CHEMBL1201862, “PubChem BioAssay data set” (2004).
